Laboratory results reported in patent US20120172386A1, “Combinations Comprising a VEGF Receptor Inhibitor” (NOVARTIS AG, priority 2005, published 2012).

SMILES | melting point [°C]
CC(C)NC(=O)c1cc(Oc2ccc3c(C(=O)Nc4cccc(C(F)(F)F)c4)cccc3c2)ncn1 [Example 51, 6-[5-(3-Trifluoromethyl-phenylcarbamoyl)-naphthalen-2-yloxy]-pyrimidine-4-carboxylic acid isopropylamide] | 205 to 208
CNc1cc(Oc2ccc3c(C(=O)Nc4cccc(C(F)(F)F)c4)cncc3c2)ncn1 [Example 96, 7-(6-Methylamino-pyrimidin-4-yloxy)-isoquinoline-4-carboxylic acid (3-trifluoromethyl-phenyl)-amide] | 205 to 208
CNC(=O)c1cc(Oc2ccc3c(C(=O)Nc4cccc(C(F)(F)F)c4)cccc3c2)ccn1 [Example 65, 4-[5-(3-Trifluoromethyl-phenylcarbamoyl)-naphthalen-2-yloxy]-pyridine-2-carboxylic acid methylamide] | 175 to 177
CNc1cc(Oc2ccc3c(C(=O)Nc4ccc(N5CCOCC5)c(C(F)(F)F)c4)cccc3c2)ncn1 [Example 40, 6-(6-Methylamino-pyrimidin-4-yloxy)-naphthalene-1-carboxylic acid (4-morpholin-4-yl-3-trifluoromethyl-phenyl)-amide] | 156 to 157
O=C(Nc1cccc(C(F)(F)F)c1)c1cccc2cc(Oc3cc(CCl)ncn3)ccc12 [Example 53, 6-(6-Chloromethyl-pyrimidin-4-yloxy)-naphthalene-1-carboxylic acid (3-trifluoromethyl-phenyl)-amide] | 178 to 181
Nc1cc(Sc2ccc3c(C(=O)Nc4cccc(OC(F)(F)F)c4)cccc3c2)ncn1 [Example 61, 6-(6-Amino-pyrimidin-4-ylsulfanyl)-naphthalene-1-carboxylic acid (3-trifluoromethoxy-phenyl)-amide] | 197 to 199
COC(=O)Nc1nccc(Oc2ccc3c(C(=O)Nc4cccc(C(F)(F)F)c4)cccc3c2)n1 [Example 19, 6-(2-Methoxycarbonylamino-pyrimidin-4-yloxy)-naphthalene-1-carboxylic acid (3-trifluoromethyl-phenyl)-amide] | 199 to 200
CNCc1cc(Oc2ccc3c(C(=O)Nc4cccc(C(F)(F)F)c4)cccc3c2)ncn1 [Example 54, 6-(6-Methylaminomethyl-pyrimidin-4-yloxy)-naphthalene-1-carboxylic acid (3-trifluoromethyl-phenyl)-amide] | 141 to 143
CCCCOC(=O)c1cc(Oc2ccc3c(C(=O)Nc4cccc(C(F)(F)F)c4)cccc3c2)ccn1 [Example 64, 4-[5-(3-Trifluoromethyl-phenylcarbamoyl)-naphthalen-2-yloxy]-pyridine-2-carboxylic acid butyl ester] | 128 to 130

The remaining lines, values ahead:

melting point [°C] | SMILES
224 to 225 | Nc1cc(Oc2ccc3c(C(=O)Nc4ccc(F)c(C(F)(F)F)c4)cccc3c2)ncn1
255 to 257 | CNc1cc(Oc2ccc3c(C(=O)Nc4ccc(F)c(C(F)(F)F)c4)cncc3c2)ncn1 [Example 95, 7-(6-Methylamino-pyrimidin-4-yloxy)-isoquinoline-4-carboxylic acid (4-fluoro-3-trifluoromethyl-phenyl)-amide]
221 | Nc1cc(Sc2ccc3c(C(=O)Nc4ccc(F)c(C(F)(F)F)c4)cccc3c2)ncn1 [Example 57, 6-(6-Amino-pyrimidin-4-ylsulfanyl)-naphthalene-1-carboxylic acid (4-fluoro-3-trifluoromethyl-phenyl)-amide]
167 | N#Cc1cc(Oc2ccc3c(C(=O)Nc4cccc(C(F)(F)F)c4)cccc3c2)ncn1 [Example 43, 6-(6-Cyano-pyrimidin-4-yloxy)-naphthalene-1-carboxylic acid (3-trifluoromethyl-phenyl)-amide]
243 to 244 | Nc1cc(Oc2ccc3c(C(=O)Nc4cccc(C(F)(F)F)c4)cccc3c2)ncn1 [Example 26, 6-(6-Amino-pyrimidin-4-yloxy)-naphthalene-1-carboxylic acid (3-trifluoromethyl-phenyl)-amide]
